Read-outs that look alike come from different tables or passages of the source. Square brackets hold non-standard residues; d marks the D form. Peptide text beside a SMILES is read from it. AEEA = NCCOCCOCC(=O)O
What was measured:
[1] = tested on: P. aeruginosa (ATCC® 27853™); assay: Mouse model of Pseudomonas keratitis (CFU/eye); type: in vivo, Pseudomonas aeruginosa in C57/BL mice; details: 10 and 20 mg/ml groups together
Experimental: A circular wound (2 mm) was created on the mouse cornea by removing the epithelium and infecting the wound with 10^5 CFU of P. aeruginosa (ATCC® 27853™ (American Type Culture Collection, Manassas, Va.)). Infected wounds were treated with saline or saline containing indicated concentrations of peptide every 15 minutes for 2 hours, then every 30 minutes for 3 hours on the first day. Infected wounds were treated twice on the second day and once on the third day. Mice were killed at 48 hours post-infection, and the colony forming units per eye (CFU/eye) were quantified. The means are plotted and are representative of 5 to 9 mice per group. Mann Whitney test was performed for each group as compared to the saline control group.
For FIGS. 15-17, in vivo bactericidal activity of the peptides was also investigated using the standard Pseudomonas keratitis model in the mouse eye (FIGS. 15-17). Peptides 120-146QR-5RMP (SEQ ID NO: 32), 120-146WH (SEQ ID NO: 31), and 120-146WR (SEQ ID NO: 30) were applied topically at doses of 2, 5, 10, and 20 mg/ml to the wounded cornea that had been infected with 10^5 CFU of Pseudomonas aeruginosa. The efficacies of the peptides were compared to treatment with the vehicle control. Mice were euthanized at 48 hours post infection, and the CFU/eye were quantified.

[2] = tested on: RAW264.7 cells; assay: LPS neutralization: TNF-α release from LPS-stimulated RAW264.7 cells; type: cell-based, mouse
Experimental: (§1) The well-characterized response of RAW264.7 macrophage cells was used to produce tumor necrosis-factor-alpha (TNF-α) in response to LPS to determine whether the peptides could dampen the release of this cytokine. […] Importantly, pre-treatment (3 hours prior to LPS addition) as well as post-treatment of the RAW264.7 cells (3 hours post LPS addition) with peptide dampened the cytokine release. […] The finding that the novel peptides bind and neutralize the effect of Pseudomonas LPS is of critical importance since this ensures that the novel therapeutic peptide compounds described herein will not only kill the bacteria, but will also neutralize the LPS endotoxin released by the bacteria which plays such an important role in the rapid progression of sepsis.
(§2) BCC01-5RMP (SEQ ID NO: 21), BCC02-5RMP (SEQ ID NO: 22), and BCC03-5RMP (SEQ ID NO: 23) were tested for their ability to bind lipopolysaccharide (LPS) using the limulus amebocyte lysate method (LAL). […] There was no statistical difference in their ability to bind LPS using the LAL technique. The ability of the peptides to neutralize LPS was assessed by determining their ability to attenuate the release of tumor necrosis factor-alpha (TNF-α) from LPS-stimulated RAW264.7 cells (a mouse macrophage cell line). […] No significant differences were observed between the three peptides to neutralize LPS as measured by cytokine release.

[3] = tested on: Salmonella typhimurium; assay: In vitro bactericidal assay; type: cell-based
Experimental: (§3) In vitro bactericidal activity: The three peptide compounds BCC01-5RMP (SEQ ID NO: 21), BCC02-5RMP (SEQ ID NO: 22), and BCC03-5RMP (SEQ ID NO: 23) were assayed for in vitro bactericidal activity against Pseudomonas aeruginosa, Escherichia coli, Salmonella typhimurium, and Acinetobacter baumannii. The starting inoculum for all experiments was 1×10^6 colony forming units (CFU)/ml. The CFU remaining at the end of 60 to 180 minute incubation was determined, and the data plotted as a log reduction in CFU/ml.

[4] = tested on: Acinetobacter baumannii ATCC® BAA-747™; type: cell-based; details: starting inoculum 1×10^6 CFU/ml; 60 to 180 minute incubation
Experimental: as §3
(§4) For FIGS. 10-13, in vitro bactericidal assays were performed using a starting inoculum of 1×10^6 CFU/ml of the bacterial suspension. The CFU remaining at the end of the 60-180 minute incubation was determined, and the data was plotted as log reduction in CFU/ml.
(§5) In particular, each of the test peptides (CAP37 peptides 120-146WR, 120-146WH, and 95-122 (SEQ ID NOs: 30, 31, and 26, respectively)) was used at 25, 12.5, 6.25, and 3.12 μM. Gentamicin was used at 4 μg/ml. 1×10^6/ml Acinetobacter baumannii ATCC® BAA-747™ or Pseudomonas aeruginosa ATCC® 27853™ (American Type Culture Collection, Manassas, Va.) were incubated with the peptides, negative buffer control (tryptone saline), and positive control gentamicin at pH 5.5 or 7.2. A 60 minute incubation was used for Acinetobacter baumannii ATCC® BAA-747™, while a 180 minute incubation was used for Pseudomonas aeruginosa ATCC® 27853™. 50 μl aliquots were plated out on agar plates and incubated overnight. Colony forming units were counted after overnight incubation and CFU/ml calculated.

[5] = tested on: Pseudomonas LPS; assay: LPS binding, Limulus Amebocyte Lysate (LAL) assay
Experimental: as §1, §2

[6] = tested on: Pseudomonas clinical isolate B64; assay: BIOSCREEN C growth assay / MIC, antibiotic in combination with peptide; type: cell-based, P. aeruginosa
Experimental: The peptide and antibiotics were set up in the wells of the microtiter plate at starting ratios of MIC equivalents of antibiotic:peptide at 3:1, 1:1, and 1:3. They were serially diluted to concentrations well below suboptimal/sublethal levels of the antibiotic and peptide. The organism was added (1×10^5 CFU/well), the BIOSCREEN C™ assay (Growth Systems USA, Piscataway, N.J.) was performed, and data was collected over 24 hours.

[7] = tested on: E. coli ATCC® strain 25922™; type: cell-based, Escherichia coli; design: unit not given here; details: Peptide Conc 1.56 μg/ml; Table 6
Experimental: as §3

[8] = tested on: Pseudomonas aeruginosa ATCC® 27853™; type: cell-based; design: Effects of Peptide Compounds on Pseudomonas aeruginosa ATCC ® 27853 ™: unit not given here; details: Table 6
Experimental: as §3, §4, §5
For FIG. 14, 1×10^6/ml Pseudomonas aeruginosa ATCC® 27853™ were incubated with each of the test peptides (CAP37 peptides 120-146WR, 120-146WH, 120-146QR, 120-146QH, 120-146QR-5RMP, and 120-146QH-5RMP (SEQ ID NOs: 30, 31, 28, 29, 32, and 33, respectively)) at 150, 75, and 37.5 μg/ml, or negative buffer control (tryptone saline), for 180 minutes at pH 5.5. 50 μl aliquots were plated out on agar plates and incubated overnight. Colony forming units were counted after overnight incubation and CFU/ml calculated.

SMILES	mice with no viable bacteria in the eye after treatment [1]	release of TNF-α in response to Pseudomonas LPS [2]	activity against Salmonella typhimurium [3]	activity against Acinetobacter baumannii [4]	binding of Pseudomonas LPS (LAL) [5]	effect of added peptide on sensitivity of the bacterium to Cefotaxime ([6]; 3.04 μg/ml peptide with Cefotaxime 2.81 μg/ml, P=0.0143)	effect of added peptide with Levofloxacin, Fractional area (FA) ([6]; 3.04 μg/ml peptide with Levofloxacin 3.6 μg/ml)	effect of added peptide on killing by Ciprofloxacin ([6]; 4.05 μg/ml peptide with […] Ciprofloxacin, P=0.0003)	effect of added peptide on the killing effect of Cefotaxime ([6]; 0.34 and 1.0 μg/ml peptide with Cefotaxime 2.81 μg/ml)	Effects of Peptide Compounds on Escherichia coli ATCC ® 25922 ™ [7]	Effects of Peptide Compounds on Pseudomonas aeruginosa ATCC ® 27853 ™ ([8]; Peptide Conc 25 μg/ml)	Effects of Peptide Compounds on Pseudomonas aeruginosa ATCC ® 27853 ™ ([8]; Peptide Conc 50 μg/ml)	Effects of Peptide Compounds on Pseudomonas aeruginosa ATCC ® 27853 ™ ([8]; Peptide Conc 100 μg/ml)	Effects of Peptide Compounds on Pseudomonas aeruginosa ATCC ® 27853 ™ ([8]; Peptide Conc 200 μg/ml)
CC(C)C[C@H](NC(=O)[C@H](CCCNC(=N)N)NC(=O)CNC(=O)CNC(=O)[C@H](CO)NC(=O)[C@H](CCCNC(=N)N)NC(=O)[C@H](CCC(N)=O)NC(=O)[C@H](CO)NC(=O)CNC(=O)[C@H](Cc1c[nH]c2ccccc12)NC(=O)CNC(=O)[C@H](C)NC(=O)[C@@H](NC(=O)[C@H](CCC(N)=O)NC(=O)[C@H](CS)NC(=O)[C@H](CCCNC(=N)N)NC(=O)[C@@H](NC(=O)CNC(=O)[C@H](CCCNC(=N)N)NC(=O)[C@H](CCCNC(=N)N)NC(=O)[C@H](CCCNC(=N)N)NC(=O)[C@H](CCCNC(=N)N)NC(=O)COCCOCCNC(=O)COCCOCCN)[C@@H](C)O)C(C)C)C(=O)N[C@@H](CO)C(=O)N[C@@H](CCCNC(=N)N)C(=O)N[C@@H](Cc1ccccc1)C(=O)N1CCC[C@H]1C(=O)N[C@@H](CCCNC(=N)N)C(=O)N[C@@H](Cc1ccccc1)C(=O)N[C@H](C(=O)N[C@@H](CC(N)=O)C(=O)N[C@H](C(=O)N[C@@H](CCCNC(=N)N)C(=O)O)C(C)C)C(C)C [120-146QR-5RMP] (H-[AEEA][AEEA]RRRRGTRCQVAGWGSQRSGGRLSRFPRFVNVR-OH; N-terminus and C-terminus assumed)	Six of the 10 mice	–	–	–	–	–	–	–	–	–	–	–	–	–
CC[C@H](C)[C@H](NC(=O)[C@H](CC(C)C)NC(=O)[C@H](C)NC(=O)CNC(=O)CNC(=O)[C@H](CS)NC(=O)[C@H](Cc1ccccc1)NC(=O)[C@H](Cc1c[nH]cn1)NC(=O)[C@H](CCCNC(=N)N)NC(=O)CNC(=O)[C@H](CCC(N)=O)NC(=O)[C@H](CC(N)=O)NC(=O)[C@H](CCCNC(=N)N)NC(=O)[C@H](CCCNC(=N)N)NC(=O)[C@H](CCCNC(=N)N)NC(=O)[C@H](CCCNC(=N)N)NC(=O)COCCOCCNC(=O)COCCOCCN)C(=O)N[C@@H](Cc1c[nH]cn1)C(=O)N[C@@H](C)C(=O)N[C@@H](CCCNC(=N)N)C(=O)N[C@@H](Cc1ccccc1)C(=O)N[C@H](C(=O)N[C@@H](CCSC)C(=O)N[C@H](C(=O)N[C@@H](C)C(=O)N[C@@H](C)C(=O)N[C@@H](CO)C(=O)N[C@@H](CS)C(=O)N[C@@H](Cc1ccccc1)C(=O)N[C@@H](CCC(N)=O)C(=O)N[C@@H](CCCNC(=N)N)C(=O)O)[C@@H](C)O)C(C)C [BCC01-5RMP] (H-[AEEA][AEEA]RRRRNQGRHFCGGALIHARFVMTAASCFQR-OH; N-terminus and C-terminus assumed)	–	attenuate the release of TNF-α	strong, but lesser activity	most active	bound Pseudomonas LPS	–	–	–	–	–	–	–	–	–
CC[C@H](C)[C@H](NC(=O)[C@H](CC(C)C)NC(=O)[C@H](C)NC(=O)CNC(=O)CNC(=O)[C@H](CO)NC(=O)[C@H](Cc1ccccc1)NC(=O)[C@H](Cc1c[nH]cn1)NC(=O)[C@H](CCCNC(=N)N)NC(=O)CNC(=O)[C@H](CCC(N)=O)NC(=O)[C@H](CC(N)=O)NC(=O)[C@H](CCCNC(=N)N)NC(=O)[C@H](CCCNC(=N)N)NC(=O)[C@H](CCCNC(=N)N)NC(=O)[C@H](CCCNC(=N)N)NC(=O)COCCOCCNC(=O)COCCOCCN)C(=O)N[C@@H](Cc1c[nH]cn1)C(=O)N[C@@H](C)C(=O)N[C@@H](CCCNC(=N)N)C(=O)N[C@@H](Cc1ccccc1)C(=O)N[C@H](C(=O)N[C@@H](CCSC)C(=O)N[C@H](C(=O)N[C@@H](C)C(=O)N[C@@H](C)C(=O)N[C@@H](CO)C(=O)N[C@@H](CS)C(=O)N[C@@H](Cc1ccccc1)C(=O)N[C@@H](CCC(N)=O)C(=O)N[C@@H](CCCNC(=N)N)C(=O)O)[C@@H](C)O)C(C)C [BCC02-5RMP] (H-[AEEA][AEEA]RRRRNQGRHFSGGALIHARFVMTAASCFQR-OH; N-terminus and C-terminus assumed)	–	attenuate the release of TNF-α	strong, but lesser activity	most active	bound Pseudomonas LPS	now sensitive	shows significance	significantly affected killing	no statistical effect	–	–	–	–	–
CC[C@H](C)[C@H](NC(=O)[C@H](CC(C)C)NC(=O)[C@H](C)NC(=O)CNC(=O)CNC(=O)[C@H](CS)NC(=O)[C@H](Cc1ccccc1)NC(=O)[C@H](Cc1c[nH]cn1)NC(=O)[C@H](CCCNC(=N)N)NC(=O)CNC(=O)[C@H](CCC(N)=O)NC(=O)[C@H](CC(N)=O)NC(=O)[C@H](CCCNC(=N)N)NC(=O)[C@H](CCCNC(=N)N)NC(=O)[C@H](CCCNC(=N)N)NC(=O)[C@H](CCCNC(=N)N)NC(=O)COCCOCCNC(=O)COCCOCCN)C(=O)N[C@@H](Cc1c[nH]cn1)C(=O)N[C@@H](C)C(=O)N[C@@H](CCCNC(=N)N)C(=O)N[C@@H](Cc1ccccc1)C(=O)N[C@H](C(=O)N[C@@H](CCSC)C(=O)N[C@H](C(=O)N[C@@H](C)C(=O)N[C@@H](C)C(=O)N[C@@H](CO)C(=O)N[C@@H](CO)C(=O)N[C@@H](Cc1ccccc1)C(=O)N[C@@H](CCC(N)=O)C(=O)N[C@@H](CCCNC(=N)N)C(=O)O)[C@@H](C)O)C(C)C [BCC03-5RMP] (H-[AEEA][AEEA]RRRRNQGRHFCGGALIHARFVMTAASSFQR-OH; N-terminus assumed)	–	attenuate the release of TNF-α	strong, but lesser activity	most active	bound Pseudomonas LPS	–	–	–	–	23.0	100.0	100.0	100.0	100.0

Source: patent publication US9862748B2, “Peptide compounds and methods of production and use thereof” (priority 2012, dated 2018)
